# According to patent US6890361B2, “Modification of printed and dyed materials” (Novozymes North America, Inc., priority 2001, dated 2005):
# Key:
# [1] = system: cutinase; details: Table 3
# Procedure: 5 mg/ml dye stock (suspension in 20 mM pH8 phosphate buffer) was made for each commercial dye. Since the absorbance of an opaque dye suspension cannot be detected by UV-vis spectrometer, these fives dyes were dissolved in acetone in the concentration of 50˜100 mg/L and the absorbance of each dye solution was measured as reference (see Table 1).
# After 10 min. preheating in waterbath, each sample was dosed with 62.5 mg/L cutinase and incubated for 10 min. The samples were then taken out for UV-vis measurement.
# [2] = UV-vis absorbance of disperse dyes dissolved in acetone (reference); format: physicochemical; details: dye concentration 50 mg/l
# [3] = Alkaline (NaOH) treatment of disperse dye suspension, UV-vis absorbance of solubilized dye; format: physicochemical; set-up: key: #: Means absorbance was not detectable by UV-vis spectrometer due to the turbidity of the suspension; details: in water, [Dye] = 50 mg/L, Table 3
# Procedure: This procedure was repeated for the alkaline treatment at 80° C.
smiles,measurement,setting,value
CCC(=O)Nc1cc(N(CCOC(C)=O)CCOC(C)=O)ccc1N=Nc1ccc([N+](=O)[O-])cc1Cl [Disperse Red 167],effect of cutinase treatment on dye solubility (in words),[1]; cutinase treated,increase in dye solubility
same,Cutinase Treated (70 C.) Abs@λ_max,"[1]; in water, [Dye] = 50 mg/L, λ_max 480 nm",0.4249 AU
same,Abs@λ max,[2],1.23
same,NaOH Treated (70 C.) Abs@λ_max,[3]; 70 C.,#
same,NaOH Treated (80 C.) Abs@λ_max,[3]; 80 C.,#
